One molecule from patent US20230287234A1, “EDIBLE COATINGS FOR MAINTAINING FRUIT QUALITY” (The State of Israel, Ministry of Agriculture & Rural …, priority 2020, published 2023) can be followed below.

The structures appear in SMILES notation. “Also recorded” adds a separate entry of the source.

The test system of experiment [1] is stem-end rot and side rot of avocado fruit. The experiment in a line: Effect of coatings with and without Phe on avocado decay (stem-end rot, side rot, total decay incidence). The class given is in vivo, 'Fuerte' avocado. To be noted: avocado stored 12 d at 22° C. Here is the method:
Three series of experiments were conducted. In each experiment the coated avocados were compared with uncoated fruits. The first experiment included seven edible coating formulations: carboxymethyl cellulose (CMC) (1% w/v), methylcellulose (MC) (1% w/v), hydroxypropyl methylcellulose (HPMC) (1% w/v), chitosan (1% w/v), alginate (1% w/v), and CMC with stearic acid (CMC+SA) (1% w/v and 0.6% w/v, respectively). The second, and third experiments included five edible coating formulations including phenylalanine, chitosan, CMC+SA, chitosan with phenylalanine, and CMC+SA with phenylalanine. In experiments 1-2 each treatment group included 8 avocados kept in cardboard boxes. In these experiments the fruit were stored for 14 and 12 days respectively at 20° C. (shelf-life conditions). In experiment 3 each treatment group included 14 avocados kept in cardboard boxes. […] Determination of decay incidences: Stem end rot (SER) was determined at the end of each experiment by assessing the visual appearance of the fruit stem end. SER was evaluated on a 0-3 scale, in which zero=no SER and three=severe SER. […] Side rot (Alternaria rot and anthracnose) was evaluated at the end of each experiment on a 0-3 scale, in which zero=no side rot and three=severe rot. […] Total decay incidences were determined by calculating the percentage of decayed fruit at the end of each experiment per treatment. […]

For the next experiment, the system named is avocado fruit. The experiment can be described thus: Chilling injury of coated avocados stored at optimal (5° C.) and sub-optimal (2° C.) temperature. To be noted: 21 d at 2° C. or 5° C., followed by one week at 22° C.; index 0-3. The class given is in vivo, 'Ettinger' avocado. Here is the method: Three series of experiments were conducted. In each experiment the coated avocados were compared with uncoated fruits. The first experiment included seven edible coating formulations: carboxymethyl cellulose (CMC) (1% w/v), methylcellulose (MC) (1% w/v), hydroxypropyl methylcellulose (HPMC) (1% w/v), chitosan (1% w/v), alginate (1% w/v), and CMC with stearic acid (CMC+SA) (1% w/v and 0.6% w/v, respectively). The second, and third experiments included five edible coating formulations including phenylalanine, chitosan, CMC+SA, chitosan with phenylalanine, and CMC+SA with phenylalanine. In experiments 1-2 each treatment group included 8 avocados kept in cardboard boxes. In these experiments the fruit were stored for 14 and 12 days respectively at 20° C. (shelf-life conditions). In experiment 3 each treatment group included 14 avocados kept in cardboard boxes. The formulations of the edible coatings were applied to the fruit using paintbrushes. […] Internal browning: Internal browning was determined by cutting each fruit for half, lengthwise, at the end of each experiment, and assessing the visual appearance of the fruit Internal browning. Internal browning was evaluated on a 0-3 scale, in which 0=no internal browning and 3=sever internal browning. […] Blackening and pitting of the skin surface, as well as internal browning, were assessed to measure chilling injury. […]

Regarding `N[C@@H](Cc1ccccc1)C(=O)O` [Phe, phenylalanine], the “decay incidence and severity (stem-end rot and side rot)” value is “some effect on reducing fruit decay incidence and severity; also recorded: increased its resistance to postharvest decay” in experiment [1]; “did not show clear protection effects” in experiment [1] (listed as Phenylalanine). Further, the chilling injuries symptoms result with avocado fruit is recorded as “reduced the appearance of chilling injuries”.
